Earlier results on one compound are cited in US10478452B2, “Antiviral pharmaceutical composition for topical use” (QUIMICA LUAR SRL, priority 2015, dated 2019).

The conditions of this data set: according to some studies.

As to `Nc1nc(O)c2ncn(COC(CO)CO)c2n1` [ganciclovir], the “concentrations of intracellular triphosphate ganciclovir relative to those of acyclovir” value was “approximately ten-fold higher” and the “mean life of intracellular triphosphate” value is “more than 24 hours”.
